We go through one compound from patent US20250057821A1, “METHODS OF TREATING MYELOID MALIGNANCIES USING BCL-2 INHIBITOR” (BeiGene Switzerland GmbH, priority 2022, published 2025).

One data set relates to patients with AML. In words: Clinical study: antileukemic activity of Compound A in combination with azacitidine in patients with AML. In kind it is in vivo, human. The following applies: for CR / CR+CRh: 80 mg x 10 day cohort (n=17); for CR/CRh: in combination with azacitidine 75 mg/m2 x 7 days, data cutoff 5 Sep. 2022. As for the experimental part:
The clinical study was conducted to evaluate the combination of Compound A and azacitidine in patients with myeloid malignancies, including acute myeloid leukemia (AML) (either treatment-naïve [TN] unfit for intensive induction chemotherapy or relapsed/refractory [R/R]), myelodysplastic syndrome (MDS), or MDS/myeloproliferative neoplasm (MPN). Patients with AML who were treatment-naive unfit for intensive chemotherapy or who are relapsed/refractory were enrolled into the AML cohorts; and patients with myelodysplastic syndrome (MDS) or MDS/myeloproliferative neoplasm (MPN) who were treatment-naïve with high-risk disease or who were relapsed/refractory were enrolled into the MDS cohorts. The AML cohorts enrolls patients with treatment-naive (TN) AML who are unfit for intensive chemotherapy and relapsed/refractory (R/R) AML. The treatment cycles are of 28 days for all AML cohorts, unless recommended otherwise by the Safety Monitoring Committee (SMC). Part 1 AML (Dose Regimen Finding; N≈18 to 36, i.e., a minimum of 6 and a maximum of 12/cohort) studied the safety and tolerability of different dose regimens of Compound A in combination with a fixed dose of azacitidine at 75 mg/m^2 for 7 days. After 3 patients have completed the dose-limiting toxicities (DLT) window, the SMC reviewed all available data and considered the probability of DLT rate to be >20% and recommended whether or not to enroll additional patients (ie, up to 12). If no additional patients were required, the SMC would recommend whether or not to open a subsequent dose regimen in Part 1 and whether to open the dose regimen for Part 2 expansion. […] The window to assess dose-limiting toxicity (DLT) is up to Day 28 for nonhematologic toxicities and Day 42 or initiation of Cycle 2 for hematologic toxicities. The AML Part 1 dose regimen finding cohorts are as follows: • A) Compound A 40 mg daily×10 days with azacitidine (Ramp-up dosing of Compound A: 5 mg, 10 mg, 20 mg, 40 mg) • B) Compound A 80 mg daily×10 days with azacitidine (Ramp-up dosing of Compound A: 10 mg, 20 mg, 40 mg, 80 mg) • C) Compound A 160 mg daily×10 days with azacitidine (Ramp-up dosing of Compound A: 20 mg, 40 mg, 80 mg, 160 mg) • D) Compound A 160 mg daily×28 days with azacitidine (Ramp-up dosing of Compound A: 20 mg, 40 mg, 80 mg, 160 mg) • E) Compound A 320 mg daily×21 days with azacitidine (Ramp-up dosing of Compound A: 40 mg, 80 mg, 160 mg, and 320 mg) • F) Compound A 320 mg daily×28 days with azacitidine (Ramp-up dosing of Compound A: 40 mg, 80 mg, 160 mg, and 320 mg) In all Part 1 AML cohorts and the Part 2 cohort receiving the 28-day dose regimen, the initial dose of azacitidine is given 1 day prior to administration of Compound A (designated as Day 0) to compare baseline PK samples of azacitidine monotherapy with azacitidine in combination with Compound A, which starts on Day 1. In the subsequent cycles and all remaining cohorts, azacitidine administration start on Day 1 concurrently with Compound A. Dosing schema in Part I AML is shown in FIG. 1. Part 2 AML (Safety Expansion; N≈60) treated up to the cohorts each consisting of approximately 10 patients with dose regimens as defined in Part 1 and recommended by the SMC to proceed to Part 2. Part 2 of the study determined safety and antileukemic activity in a larger number of patients with a longer follow-up at dose regimens that were declared tolerable with early signs of activity in Part 1. At a given time, more than one dose regimen may be approved for expansion in Part 2; however, only a single Part 2 AML cohort was to be offered to prospective participants. Patients were preferentially enrolled in any open Part 1 cohort, if applicable. Each Part 2 cohort would continue to enroll up to 10 patients; this would include any additional patients enrolled in Part 1 but not needed for the initial SMC safety review of that cohort. […]

Data set [1] relates to patients with AML or MDS or MDS/MPN. In words: Clinical study: safety and tolerability of Compound A in combination with azacitidine. The format is in vivo, human. The following applies: treatment of AML or MDS or MDS/MPN, as of 4 Feb. 2023, 97 patients. As for the experimental part: The clinical study was conducted to evaluate the combination of Compound A and azacitidine in patients with myeloid malignancies, including acute myeloid leukemia (AML) (either treatment-naïve [TN] unfit for intensive induction chemotherapy or relapsed/refractory [R/R]), myelodysplastic syndrome (MDS), or MDS/myeloproliferative neoplasm (MPN). Patients with AML who were treatment-naive unfit for intensive chemotherapy or who are relapsed/refractory were enrolled into the AML cohorts; and patients with myelodysplastic syndrome (MDS) or MDS/myeloproliferative neoplasm (MPN) who were treatment-naïve with high-risk disease or who were relapsed/refractory were enrolled into the MDS cohorts.
Part 1 AML (Dose Regimen Finding; N≈18 to 36, i.e., a minimum of 6 and a maximum of 12/cohort) studied the safety and tolerability of different dose regimens of Compound A in combination with a fixed dose of azacitidine at 75 mg/m^2 for 7 days. After 3 patients have completed the dose-limiting toxicities (DLT) window, the SMC reviewed all available data and considered the probability of DLT rate to be >20% and recommended whether or not to enroll additional patients (ie, up to 12). […]
All Part 1, Part 2, and Part 3 cohorts were assessed for DLTs. […]

The mark [2] stands for this setting: R/R patients, in combination with azacitidine.
Where [3] appears, read: TN patients, in combination with azacitidine.

With `CC(C)c1ccccc1[C@@H]1CCCN1C1CC2(CCN(c3ccc(C(=O)NS(=O)(=O)c4ccc(NCC5CCC(C)(O)CC5)c([N+](=O)[O-])c4)c(Oc4cnc5[nH]ccc5c4)c3)CC2)C1` (stereo partly drawn) [Compound A, 2-((1H-pyrrolo[2,3-b]pyridin-5-yl)oxy)-N-((4-((((1r,4r)-4-hydroxy-4-methylcyclohexyl)methyl)amino)-3-nitrophenyl)sulfonyl)-4-(2-((S)-2-(2-isopropylphenyl)pyrrolidin-1-yl)-7-azaspiro[3.5]nonan-7-yl)benzamide], the values for the CR with patients with AML (setting [2]) and with patients with AML (setting [3]) were 50% and 73%, respectively. Also, the entries for the “CR+CRh” value in the data set with patients with AML (setting [2]) and in the data set on patients with AML (setting [3]) were 67% and 73%, respectively. Besides, the CR/CRh in the data set with patients with AML (R/R AML patients, all dose cohorts) is listed as 50%; with patients with AML (TN unfit AML patients, all dose cohorts (40, 80, 160 mg x 10 days, 160 mg x 28 days)), 65%. Moreover, the “CR+CRh in TN AML achieved by the end of cycle 1” value in the data set with patients with AML (TN AML patients, responders by end of cycle 1 out of all CR+CRh responders, in combination with azacitidine) is reported as 15 of 20. In addition, in data set [1], the safety analysis entry is “well-tolerated and safe”.
